Reference: ChEMBL document CHEMBL5223123, “Synthesis and pharmacological characterization of multiply substituted 2H-chromene derivatives as P2Y6 receptor antagonists” (Bioorg Med Chem Lett, 2022)
One block for each compound: values may come before it.

Assays:
HEK293 = test: Cytotoxicity against HEK293 cells assessed as reduction in cell viability at 100 uM measured after 24 hrs by MTT assay relative to control; type: toxicity, cell-based; details: human, hek293, 24 h
[1] = biological target: P2Y purinoceptor 2 (Homo sapiens) (UniProt P41231); test: Antagonist activity at human P2Y2R expressed in human 1321N1 cells assessed as inhibition of […] calcium mobilization at 100 uM by FLIPR assay relative to control; type: cell-based; parameters: scale not given: the % may be the effect or the level left
P2Y purinoceptor 2 (Homo sapiens), sequence (P41231 whole entry): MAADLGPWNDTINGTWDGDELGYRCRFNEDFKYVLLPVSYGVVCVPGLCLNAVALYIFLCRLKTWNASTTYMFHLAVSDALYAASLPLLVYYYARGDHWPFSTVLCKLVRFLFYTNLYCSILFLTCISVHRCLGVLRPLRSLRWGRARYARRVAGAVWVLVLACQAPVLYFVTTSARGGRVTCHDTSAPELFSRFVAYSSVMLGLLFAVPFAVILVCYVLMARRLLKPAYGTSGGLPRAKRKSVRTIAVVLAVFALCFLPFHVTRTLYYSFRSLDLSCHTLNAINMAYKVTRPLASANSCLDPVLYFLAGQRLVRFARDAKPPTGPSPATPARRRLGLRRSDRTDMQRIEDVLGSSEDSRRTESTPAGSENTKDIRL

[2] = biological target: P2Y purinoceptor 1 (Meleagris gallopavo) (UniProt P49652); test: Antagonist activity at Meleagris P2Y1R expressed in human 1321N1 cells assessed as inhibition of […] calcium mobilization at 100 uM by FLIPR assay relative to control; type: cell-based; parameters: scale not given: the % may be the effect or the level left
P2Y purinoceptor 1 (Meleagris gallopavo), sequence (P49652 whole entry): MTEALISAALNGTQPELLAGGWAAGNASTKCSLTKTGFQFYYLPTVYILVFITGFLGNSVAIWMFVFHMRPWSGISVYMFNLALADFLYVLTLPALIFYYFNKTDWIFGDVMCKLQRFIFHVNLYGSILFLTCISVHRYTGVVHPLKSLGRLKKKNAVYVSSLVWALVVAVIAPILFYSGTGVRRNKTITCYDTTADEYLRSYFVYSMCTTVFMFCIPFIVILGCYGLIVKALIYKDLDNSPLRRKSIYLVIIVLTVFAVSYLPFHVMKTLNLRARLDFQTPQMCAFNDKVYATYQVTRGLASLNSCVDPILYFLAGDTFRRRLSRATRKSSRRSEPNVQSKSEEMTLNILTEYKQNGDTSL

[3] = biological target: P2Y purinoceptor 4 (Homo sapiens) (UniProt P51582); test: Antagonist activity at human P2Y4R expressed in human 1321N1 cells assessed as inhibition of […] calcium mobilization at 100 uM by FLIPR assay relative to control; type: cell-based; parameters: scale not given: the % may be the effect or the level left
P2Y purinoceptor 4 (Homo sapiens), sequence (P51582 whole entry): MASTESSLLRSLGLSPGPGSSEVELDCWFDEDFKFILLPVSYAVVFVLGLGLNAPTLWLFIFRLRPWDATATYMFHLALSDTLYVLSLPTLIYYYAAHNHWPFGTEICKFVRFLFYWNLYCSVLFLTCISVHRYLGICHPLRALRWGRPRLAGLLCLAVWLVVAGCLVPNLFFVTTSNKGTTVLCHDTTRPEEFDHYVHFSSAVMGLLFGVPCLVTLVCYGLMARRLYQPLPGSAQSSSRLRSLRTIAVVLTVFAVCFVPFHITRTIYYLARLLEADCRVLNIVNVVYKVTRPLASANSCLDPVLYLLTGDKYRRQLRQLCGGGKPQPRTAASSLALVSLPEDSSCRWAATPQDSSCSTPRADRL

P2Y purinoceptor 6 [4] = biological target: P2Y purinoceptor 6 (Mus musculus, UniProt Q9ERK9); test: Antagonist activity at mouse P2Y6R expressed in human 1321N1 cells assessed as inhibition of […] calcium mobilization by FLIPR assay; type: cell-based
P2Y purinoceptor 6 (Mus musculus, UniProt Q9ERK9), sequence (Q9ERK9 whole entry): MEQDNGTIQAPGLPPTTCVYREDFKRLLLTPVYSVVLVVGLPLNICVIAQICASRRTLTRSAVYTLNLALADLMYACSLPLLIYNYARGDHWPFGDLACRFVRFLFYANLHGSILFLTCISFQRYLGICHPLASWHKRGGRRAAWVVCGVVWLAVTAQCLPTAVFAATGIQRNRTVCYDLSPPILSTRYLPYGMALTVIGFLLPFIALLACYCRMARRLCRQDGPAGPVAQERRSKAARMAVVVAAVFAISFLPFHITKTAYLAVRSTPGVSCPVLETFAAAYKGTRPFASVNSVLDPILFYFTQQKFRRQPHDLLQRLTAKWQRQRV

[5] = biological target: P2Y purinoceptor 6 (Mus musculus) (UniProt Q9ERK9); test: Antagonist activity at mouse P2Y6R expressed in human 1321N1 cells assessed as inhibition of […] calcium mobilization at 20 uM by FLIPR assay relative to control; type: cell-based; parameters: scale not given: the % may be the effect or the level left
P2Y purinoceptor 6 (Mus musculus), sequence (Q9ERK9 whole entry): as above

Histamine H1 receptor = Histamine H1 receptor (Homo sapiens, UniProt P35367); test: Binding affinity to histamine H1 receptor (unknown origin)
Histamine H1 receptor, sequence (P35367 whole entry): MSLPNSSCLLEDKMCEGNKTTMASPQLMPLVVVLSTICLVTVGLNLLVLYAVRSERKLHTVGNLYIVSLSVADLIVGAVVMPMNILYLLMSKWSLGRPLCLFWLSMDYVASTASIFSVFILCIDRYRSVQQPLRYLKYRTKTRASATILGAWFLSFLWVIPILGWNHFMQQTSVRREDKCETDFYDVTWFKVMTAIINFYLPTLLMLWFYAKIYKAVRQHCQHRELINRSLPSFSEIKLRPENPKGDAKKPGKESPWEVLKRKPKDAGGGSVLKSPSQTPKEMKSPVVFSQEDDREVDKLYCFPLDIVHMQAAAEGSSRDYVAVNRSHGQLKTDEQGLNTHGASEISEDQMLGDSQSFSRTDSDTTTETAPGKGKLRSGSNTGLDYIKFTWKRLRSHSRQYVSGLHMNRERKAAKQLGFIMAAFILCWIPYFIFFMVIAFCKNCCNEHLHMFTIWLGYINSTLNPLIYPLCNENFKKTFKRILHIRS

P2Y purinoceptor 6 [6] = biological target: T1, P2Y purinoceptor 6 (Homo sapiens, UniProt Q15077); test: Antagonist activity at human P2Y6R expressed in human 1321N1 cells assessed as inhibition of […] calcium mobilization by FLIPR assay; type: cell-based
T1 sequence (Q15077 whole entry): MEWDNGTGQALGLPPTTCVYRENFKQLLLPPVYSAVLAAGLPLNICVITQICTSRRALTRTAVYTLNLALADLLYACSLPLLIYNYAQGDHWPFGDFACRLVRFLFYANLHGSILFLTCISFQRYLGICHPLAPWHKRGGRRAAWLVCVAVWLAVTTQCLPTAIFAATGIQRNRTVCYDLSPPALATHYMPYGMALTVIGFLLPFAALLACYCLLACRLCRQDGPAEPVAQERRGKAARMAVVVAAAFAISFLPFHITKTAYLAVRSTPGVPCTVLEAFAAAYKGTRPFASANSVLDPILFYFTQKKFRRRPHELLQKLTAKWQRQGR

[7] = biological target: 5-hydroxytryptamine receptor 2A (Homo sapiens, UniProt P28223); test: Binding affinity to 5-HT2A (unknown origin)
5-hydroxytryptamine receptor 2A, sequence (P28223 whole entry): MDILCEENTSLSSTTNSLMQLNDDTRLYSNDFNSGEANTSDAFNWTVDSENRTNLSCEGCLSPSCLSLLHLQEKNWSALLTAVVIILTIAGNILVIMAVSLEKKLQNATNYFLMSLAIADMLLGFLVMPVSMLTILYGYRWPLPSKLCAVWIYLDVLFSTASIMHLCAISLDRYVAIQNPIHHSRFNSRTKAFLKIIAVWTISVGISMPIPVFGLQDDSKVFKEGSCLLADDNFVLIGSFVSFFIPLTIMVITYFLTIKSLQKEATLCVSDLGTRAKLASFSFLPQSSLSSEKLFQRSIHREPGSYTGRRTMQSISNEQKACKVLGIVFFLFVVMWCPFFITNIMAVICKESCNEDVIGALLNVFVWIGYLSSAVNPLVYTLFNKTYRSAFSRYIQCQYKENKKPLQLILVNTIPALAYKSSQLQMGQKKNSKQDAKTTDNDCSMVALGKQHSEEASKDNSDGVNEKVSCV

[8] = biological target: T2, Alpha-2C adrenergic receptor (Homo sapiens, UniProt P18825); test: Binding affinity to adrenergic alpha 2c receptor (unknown origin)
T2 sequence (P18825 whole entry): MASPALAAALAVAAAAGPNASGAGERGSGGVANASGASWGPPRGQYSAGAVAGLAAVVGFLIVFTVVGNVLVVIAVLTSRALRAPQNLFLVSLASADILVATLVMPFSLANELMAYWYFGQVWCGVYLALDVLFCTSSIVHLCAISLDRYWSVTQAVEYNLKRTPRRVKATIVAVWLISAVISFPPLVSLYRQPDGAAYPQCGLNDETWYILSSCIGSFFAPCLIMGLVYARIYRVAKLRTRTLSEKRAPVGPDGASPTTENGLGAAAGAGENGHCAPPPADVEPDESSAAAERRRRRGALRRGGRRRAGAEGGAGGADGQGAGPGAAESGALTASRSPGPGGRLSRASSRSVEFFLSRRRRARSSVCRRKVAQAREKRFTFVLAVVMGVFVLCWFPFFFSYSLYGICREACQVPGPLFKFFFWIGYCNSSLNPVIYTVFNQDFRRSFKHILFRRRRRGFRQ

[9] = biological target: Sigma non-opioid intracellular receptor 1 (Homo sapiens, UniProt Q99720); test: Binding affinity to sigma 1 receptor (unknown origin)
Sigma non-opioid intracellular receptor 1, sequence (Q99720 whole entry): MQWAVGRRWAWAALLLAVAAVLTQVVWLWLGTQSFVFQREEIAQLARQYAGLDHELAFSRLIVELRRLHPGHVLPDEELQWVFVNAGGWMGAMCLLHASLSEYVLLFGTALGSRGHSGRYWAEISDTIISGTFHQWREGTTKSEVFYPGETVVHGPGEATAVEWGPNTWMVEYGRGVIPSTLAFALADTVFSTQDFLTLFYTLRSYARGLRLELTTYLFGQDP

[10] = biological target: Beta-3 adrenergic receptor (Homo sapiens, UniProt P13945); test: Binding affinity to adrenergic beta 3 (unknown origin)
Beta-3 adrenergic receptor, sequence (P13945 whole entry): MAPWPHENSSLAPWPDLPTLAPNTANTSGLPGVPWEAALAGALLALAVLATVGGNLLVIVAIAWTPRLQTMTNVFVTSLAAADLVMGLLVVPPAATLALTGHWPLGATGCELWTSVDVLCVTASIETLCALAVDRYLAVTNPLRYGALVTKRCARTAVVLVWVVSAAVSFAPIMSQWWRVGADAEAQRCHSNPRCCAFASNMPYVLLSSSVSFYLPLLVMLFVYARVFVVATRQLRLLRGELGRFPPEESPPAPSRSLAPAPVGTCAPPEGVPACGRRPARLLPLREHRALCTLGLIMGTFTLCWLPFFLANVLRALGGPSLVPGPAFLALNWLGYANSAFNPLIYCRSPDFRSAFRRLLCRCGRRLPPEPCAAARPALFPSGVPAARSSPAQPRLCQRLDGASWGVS

D(3) dopamine receptor = D(3) dopamine receptor (Homo sapiens, UniProt P35462); test: Binding affinity to dopamine 3 receptor (unknown origin)
D(3) dopamine receptor, sequence (P35462 whole entry): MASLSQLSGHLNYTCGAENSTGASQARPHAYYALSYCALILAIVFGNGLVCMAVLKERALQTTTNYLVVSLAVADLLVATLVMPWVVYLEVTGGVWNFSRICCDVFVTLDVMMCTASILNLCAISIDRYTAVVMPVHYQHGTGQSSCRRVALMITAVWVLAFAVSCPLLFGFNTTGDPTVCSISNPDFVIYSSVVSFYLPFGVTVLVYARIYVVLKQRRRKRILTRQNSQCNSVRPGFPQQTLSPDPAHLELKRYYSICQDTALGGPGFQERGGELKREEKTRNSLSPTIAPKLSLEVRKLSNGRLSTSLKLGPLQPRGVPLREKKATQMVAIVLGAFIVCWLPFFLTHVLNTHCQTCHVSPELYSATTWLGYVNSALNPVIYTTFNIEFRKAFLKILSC

D(1B) dopamine receptor = D(1B) dopamine receptor (Homo sapiens, UniProt P21918); test: Binding affinity to dopamine 5 receptor (unknown origin)
D(1B) dopamine receptor, sequence (P21918 whole entry): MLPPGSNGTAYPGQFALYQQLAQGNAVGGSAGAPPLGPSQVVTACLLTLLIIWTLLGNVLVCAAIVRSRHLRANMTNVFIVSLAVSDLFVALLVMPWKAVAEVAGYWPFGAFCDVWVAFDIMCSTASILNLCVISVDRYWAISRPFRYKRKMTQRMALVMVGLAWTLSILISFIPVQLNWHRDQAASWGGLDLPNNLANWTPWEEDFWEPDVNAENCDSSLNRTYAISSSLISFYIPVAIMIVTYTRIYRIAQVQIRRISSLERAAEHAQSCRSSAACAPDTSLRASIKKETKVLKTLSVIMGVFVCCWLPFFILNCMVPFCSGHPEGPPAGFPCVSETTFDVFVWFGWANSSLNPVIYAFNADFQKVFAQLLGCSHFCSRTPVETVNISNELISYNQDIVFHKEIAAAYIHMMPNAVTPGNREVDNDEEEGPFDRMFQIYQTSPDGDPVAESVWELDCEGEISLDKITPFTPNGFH

[11] = biological target: Sigma intracellular receptor 2 (Homo sapiens, UniProt Q5BJF2); test: Binding affinity to sigma 2 receptor (unknown origin)
Sigma intracellular receptor 2, sequence (Q5BJF2 whole entry): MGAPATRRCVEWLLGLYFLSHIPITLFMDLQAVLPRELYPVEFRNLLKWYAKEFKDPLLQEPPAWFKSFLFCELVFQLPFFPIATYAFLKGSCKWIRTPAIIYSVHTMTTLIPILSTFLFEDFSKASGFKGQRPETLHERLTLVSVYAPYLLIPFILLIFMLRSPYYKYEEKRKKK

P2Y purinoceptor 6 [12] = biological target: T1, P2Y purinoceptor 6; test: Antagonist activity at human P2Y6R expressed in human 1321N1 cells assessed as inhibition of […] calcium mobilization at 100 uM by FLIPR assay relative to control; type: cell-based; parameters: scale not given: the % may be the effect or the level left

Structure (SMILES): C[Si](C)(C)C#Cc1ccc2c(c1)C=C([N+](=O)[O-])C(C(F)(F)F)O2 (racemic)
Activity (HEK293): 58%
Activity [1]: < 30%
Activity [2]: < 30%
Activity [3]: < 30%

IC50 (P2Y purinoceptor 6 [4]): 20.2 µM
Structure (SMILES): O=[N+]([O-])C1=Cc2cc(Br)ccc2OC1C(F)(F)F (racemic)

Activity [1]: < 30%
Activity [2]: < 30%
Activity [5]: 14%
Activity [3]: < 30%
Structure (SMILES): O=C(O)c1ccc(C#Cc2ccc3c(c2)C=C([N+](=O)[O-])C(C(F)(F)F)O3)cc1 (racemic)
Activity (HEK293): 95%

IC50 (P2Y purinoceptor 6 [4]): 28.7 µM
Structure (SMILES): O=[N+]([O-])C1=Cc2cc(I)ccc2OC1C(F)(F)F (racemic)

IC50 (P2Y purinoceptor 6 [4]): 185 µM
Structure (SMILES): O=[N+]([O-])C1=Cc2ccccc2OC1C(F)(F)F (racemic)

Structure (SMILES): CC[Si](C#Cc1ccc2c(c1)C=C([N+](=O)[O-])C(C(F)(F)F)O2)(CC)CC (racemic)
Activity (HEK293): 73%
Activity [1]: < 30%
Activity [2]: < 30%
IC50 (P2Y purinoceptor 6 [4]): 4.94 µM
Activity [3]: < 30%

Structure (SMILES): CC[Si](C#Cc1cccc2c1OC(C(F)(F)F)C([N+](=O)[O-])=C2)(CC)CC (racemic)
Ki (Histamine H1 receptor): 3.5 µM
IC50 (P2Y purinoceptor 6 [6]): 0.461 µM
Ki [7]: 4.2 µM
Activity (HEK293): 83%
Activity [1]: < 30%
Activity [2]: 39.2%
Ki [8]: 1.1 µM
IC50 (P2Y purinoceptor 6 [4]): 6.15 µM
Ki [9]: 6.4 µM
Activity [3]: < 30%
Ki [10]: 7.3 µM

IC50 (P2Y purinoceptor 6 [6]): 3.69 µM
IC50 (P2Y purinoceptor 6 [4]): 15.2 µM
Structure (SMILES): O=[N+]([O-])C1=Cc2cccc(Cl)c2OC1C(F)(F)F (racemic)

Structure (SMILES): CC[Si](C#Cc1cccc2c1C=C([N+](=O)[O-])C(C(F)(F)F)O2)(CC)CC (racemic)
IC50 (P2Y purinoceptor 6 [6]): 4.77 µM

IC50 (P2Y purinoceptor 6 [6]): 5.35 µM
Structure (SMILES): O=[N+]([O-])C1=Cc2cc(C#Cc3ccc(Cl)cc3)ccc2OC1C(F)(F)F (racemic)

Ki (D(3) dopamine receptor): 0.78 µM
Ki (D(1B) dopamine receptor): 2.79 µM
IC50 (P2Y purinoceptor 6 [4]): 30.8 µM
Structure (SMILES): O=[N+]([O-])C1=Cc2cc(Cl)ccc2OC1C(F)(F)F (racemic)

IC50 (P2Y purinoceptor 6 [6]): 2.99 µM
IC50 (P2Y purinoceptor 6 [4]): 17.8 µM
Structure (SMILES): O=[N+]([O-])C1=Cc2cc(F)cc(F)c2OC1C(F)(F)F (racemic)

IC50 (P2Y purinoceptor 6 [6]): 15.7 µM
Structure (SMILES): O=[N+]([O-])C1=Cc2c(Cl)cccc2OC1C(F)(F)F (racemic)

IC50 (P2Y purinoceptor 6 [4]): 17.6 µM
Structure (SMILES): O=[N+]([O-])C1=Cc2cccc(I)c2OC1C(F)(F)F (racemic)

IC50 (P2Y purinoceptor 6 [6]): 13.1 µM
Structure (SMILES): O=[N+]([O-])C1=Cc2c(I)cccc2OC1C(F)(F)F (racemic)

Ki (D(1B) dopamine receptor): 0.6 µM
IC50 (P2Y purinoceptor 6 [4]): 31.6 µM
Structure (SMILES): O=[N+]([O-])C1=Cc2cc(C#Cc3ccc(CO)cc3)ccc2OC1C(F)(F)F (racemic)

IC50 (P2Y purinoceptor 6 [6]): 8.86 µM
Structure (SMILES): O=[N+]([O-])C1=Cc2cc(C#Cc3ccc(F)cc3)ccc2OC1C(F)(F)F (racemic)

IC50 (P2Y purinoceptor 6 [6]): 36.8 µM
Structure (SMILES): CC1Oc2ccc(I)cc2C=C1[N+](=O)[O-] (racemic)

IC50 (P2Y purinoceptor 6 [4]): 14.5 µM
Structure (SMILES): O=[N+]([O-])C1=Cc2cc(F)cc(Br)c2OC1C(F)(F)F (racemic)

Ki [11]: 8.6 µM
Structure (SMILES): O=[N+]([O-])C1=Cc2cc(F)ccc2OC1C(F)(F)F (racemic)

IC50 (P2Y purinoceptor 6 [6]): 33.1 µM
Structure (SMILES): O=[N+]([O-])C1=Cc2cc(I)ccc2OC1C1CCC1 (racemic)

IC50 (P2Y purinoceptor 6 [6]): 7.98 µM
Structure (SMILES): O=[N+]([O-])C1=Cc2ccc(Cl)cc2OC1C(F)(F)F (racemic)

Structure (SMILES): CC[Si](C#Cc1ccc2c(c1)C=C([N+](=O)[O-])C(C1CC1)O2)(CC)CC (racemic)
Activity (P2Y purinoceptor 6 [12]; filed as antagonist): 50%

Activity (P2Y purinoceptor 6 [12]; filed as antagonist): 43%
Structure (SMILES): FC(F)(F)C1Oc2ccc(Cl)cc2-c2n[nH]nc21 (racemic)

Structure (SMILES): NC1Cc2ccccc2OC1C(F)(F)F (racemic)
Activity (P2Y purinoceptor 6 [12]): 0%
